According to patent CN110668932A, “一种共晶体及制备方法、包含共晶体的药物组合物及用途” (Individual, priority 2019, dated 2020):

What was measured:
[1] = Liver injury side effect experiment in mice, ALT and AST (Experimental Example 5); format: in vivo, mouse; details: 0.012 g/kg, gavage, 2 weeks, Kunming mice; for ALT / ASL: serum, compared with normal control group
[2] = system: metabolic syndrome model rats (代谢综合征模型大鼠); assay: Effect in metabolic syndrome model rats (Experimental Example 4); format: in vivo, rat; details: 10 mL/kg, once daily, gavage, 8 weeks; for serum LDL-C level vs control group / serum TG level vs control group: compared with control group (standard feed); for serum LDL-C level vs model group / serum TG level vs model group: compared with model group
[3] = system: human gastric cancer SGC-7901 cells, human liver cancer Bet-7402 cells, human lung cancer H460 cells (人胃癌SGC-7901细胞、人肝癌Bet-7402细胞、人肺癌H460细胞); assay: In vivo antitumour experiment in mice (Experimental Example 1); set-up: species or system mouse; details: 2 mg/kg active ingredient, oral, twice daily, 15-20 days; for tumor size / weight vs negative control group: compared with negative control group; for tumor inhibition effect: mice

SMILES | liver injury effect [1] | ALT [1] | ASL [1] | serum LDL-C level vs control group [2] | serum TG level vs control group [2] | serum LDL-C level vs model group [2] | serum TG level vs model group [2] | tumor size / weight vs negative control group [3] | tumor inhibition effect [3]
COc1cc(CCC(=O)CC(=O)CCc2ccc(O)c(OC)c2)ccc1O [SHCUR, 四氢姜黄素] | 没有明显肝损伤作用 | 与正常对照组相近 | 与正常对照组相近 | 较高 | 较高 | 较低 | 较低 | 肿瘤明显减小,低于阴性对照组 | 具有较好的抑制肿瘤的效果
COc1cc(CCC(=O)CC(=O)CCc2ccc(O)cc2)ccc1O [SHDMCUR, 四氢去甲氧基姜黄素] | 没有明显肝损伤作用 | 与正常对照组相近 | 与正常对照组相近 | 较高 | 较高 | 较低 | 较低 | 肿瘤明显减小,低于阴性对照组 | 具有较好的抑制肿瘤的效果
O=C(CCc1ccc(O)cc1)CC(=O)CCc1ccc(O)cc1 [四氢双去甲氧基姜黄素] | 没有明显肝损伤作用 | 与正常对照组相近 | 与正常对照组相近 | 较高 | 较高 | 较低 | 较低 | 肿瘤明显减小,低于阴性对照组 | 具有较好的抑制肿瘤的效果
CC(=O)O[C@H]1C(=O)[C@@]2(C)[C@H]([C@H](OC(=O)c3ccccc3)[C@]3(O)C[C@H](OC(=O)[C@H](O)[C@@H](NC(=O)c4ccccc4)c4ccccc4)C(C)=C1C3(C)C)[C@]1(OC(C)=O)CO[C@@H]1C[C@@H]2O [紫杉醇] | – | – | – | – | – | – | – | 肿瘤明显减小,低于阴性对照组 | 具有较好的抑制肿瘤的效果
